In patent US8202885B2, “Bridged six-membered ring compounds” (Actelion Pharmaceuticals Ltd., priority 2007, dated 2012):

System: human Cav3.1 Cav3.2 or Cav3.3 channel
Assay: In vitro assay T channel (FLIPR calcium fluorescence)
Assay type: cell-based
Conditions: HEK293 cells expressing human Cav3.1, Cav3.2 or Cav3.3; 10 mM Ca2+-induced fluo-4 fluorescence; determined up to 10 μM; read-out: T channel antagonistic activity IC50
Summary of the method: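 IC50 (nM) is the antagonist concentration halving the area under the fluorescence peak evoked by 10 mM Ca2+, relative to vehicle, with testing up to 10 μM. Fluo-4-loaded HEK293 cells expressing each human Cav3 subtype received compound 3 min before Ca2+ addition (TEA-based buffer, pH 7.2); signal monitored 8 min at 2 s intervals.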

SMILES | IC50 [µM]
COc1cccc2[nH]c(CCCN(C)CC[C@]3(OC(=O)C(C)(C)C)C[C@H]4CC[C@@H]3C=C4c3ccccc3)nc12 (relative stereo) [Example 26D, rac-2,2-Dimethyl propionic acid (1R*,2R*,4R*)-2-(2-{[3-(4-methoxy-1H-benzoimidazol-2-yl)-propyl]-methyl-amino}-ethyl)-5-phenyl-bicyclo[2.2.2]oct-5-en-2-yl ester] | 1.05
COc1cccc(C2=C[C@H]3CC[C@@H]2C[C@@]3(O)CCN(C)CCCc2nc3ccccc3[nH]2)c1 (relative stereo) [Example 2, rac-(1R*,2R*,4R*)-2-(2-{[3-(1H-Benzoimidazol-2-yl)-propyl]-methyl-amino}-ethyl)-5-(3-methoxy-phenyl)-bicyclo[2.2.2]oct-5-en-2-ol] | 5.98
COc1cccc2c1nc(CCCN(C)CC[C@]1(OC(=O)C(C)C)C[C@H]3CC[C@@H]1C=C3c1ccccc1)n2C (relative stereo) [Example 37A, rac-Isobutyric acid (1R*,2R*,4R*)-2-(2-{[3-(4-methoxy-1-methyl-1H-benzoimidazol-2-yl)-propyl]-methyl-amino}-ethyl)-5-phenyl-bicyclo[2.2.2]oct-5-en-2-yl ester] | 0.935
CC(C)C(=O)O[C@@]1(CCN(C)CCCc2nc3ccccc3[nH]2)C[C@H]2CC[C@@H]1C=C2c1ccccc1 (relative stereo) [Example 1A, rac-Isobutyric acid (1R*,2R*,4R*)-2-(2-{[3-(1H-Benzoimidazol-2-yl)-propyl]-methyl-amino}-ethyl)-5-phenyl-bicyclo[2.2.2]oct-5-en-2-yl ester] | 4.94
CC(C)C(=O)O[C@@]1(CCN(C)Cc2nc3ccccc3[nH]2)C[C@H]2CC[C@@H]1C=C2c1ccccc1 (relative stereo) [Example 14A, rac-Isobutyric acid (1R*,2R*,4R*)-2-{2-[(1H-benzoimidazol-2-ylmethyl)-methyl-amino]-ethyl}-5-phenyl-bicyclo[2.2.2]oct-5-en-2-yl ester] | 3.18
COc1cccc2[nH]c(CCCN(C)CC[C@]3(O)C[C@H]4CC[C@@H]3C=C4c3ccccc3)nc12 (relative stereo) [Example 26, rac-(1R*,2R*,4R*)-2-(2-{[3-(4-Methoxy-1H-benzoimidazol-2-yl)-propyl]-methyl-amino}-ethyl)-5-phenyl-bicyclo[2.2.2]oct-5-en-2-ol] | > 10
CN(CCCc1nc2ccccc2[nH]1)CC[C@]1(O)C[C@H]2CC[C@@H]1C=C2c1nccs1 (relative stereo) [Example 24, rac-(1R*,2R*,4R*)-2-(2-{[3-(1H-Benzoimidazol-2-yl)-propyl]-methyl-amino}-ethyl)-5-thiazol-2-yl-bicyclo[2.2.2]oct-5-en-2-ol] | > 10
CC(C)Oc1cccc2nc(CCCN(C)CC[C@]3(OC(=O)C(C)C)C[C@H]4CC[C@@H]3C=C4c3ccccc3)[nH]c12 (relative stereo) [Example 33A, rac-Isobutyric acid (1R*,2R*,4R*)-2-(2-{[3-(7-isopropoxy-1H-benzoimidazol-2-yl)-propyl]-methyl-amino}-ethyl)-5-phenyl-bicyclo[2.2.2]oct-5-en-2-yl ester] | 1.66
CN(CCCc1nc2ccccc2[nH]1)CC[C@]1(O)C[C@H]2CC[C@@H]1C=C2c1ccc2ccccc2c1 (relative stereo) [Example 10, rac-(1R*,2R*,4R*)-2-(2-{[3-(1H-Benzoimidazol-2-yl)-propyl]-methyl-amino}-ethyl)-5-naphthalen-2-yl-bicyclo[2.2.2]oct-5-en-2-ol] | 5.87
CCCC1=C(C)[C@H]2CC[C@@H]1C[C@]2(CCN(C)CCCc1nc2ccccc2[nH]1)OC(=O)C(C)C (relative stereo) [Example 16A, rac-Isobutyric acid (1R*,2R*,4R*)-2-(2-{[3-(1H-benzoimidazol-2-yl)-propyl]-methyl-amino}-ethyl)-6-methyl-5-propyl-bicyclo[2.2.2]oct-5-en-2-yl ester] | 2.39
CN(CCCc1nc2ccccc2[nH]1)CC[C@]1(O)C[C@H]2CC[C@@H]1C=C2c1cccc(F)c1 (relative stereo) [Example 7, rac-(1R*,2R*,4R*)-2-(2-{[3-(1H-Benzoimidazol-2-yl)-propyl]-methyl-amino}-ethyl)-5-(3-fluoro-phenyl)-bicyclo[2.2.2]oct-5-en-2-ol] | 4.4

Results, then the compound that gave them:

IC50 [µM] | SMILES
0.914 | COc1cc(C)c2[nH]c(CCCN(C)CC[C@]3(OC(=O)C(C)C)C[C@H]4CC[C@@H]3C=C4c3ccccc3)nc2c1OC (relative stereo) [Example 64A, rac-Isobutyric acid (1R*,2R*,4R*)-2-(2-{[3-(4,5-dimethoxy-7-methyl-1H-benzoimidazol-2-yl)-propyl]-methyl-amino}-ethyl)-5-phenyl-bicyclo[2.2.2]oct-5-en-2-yl ester]
1.45 | Cc1nc(CCCN(C)CC[C@]2(OC(=O)C(C)C)C[C@H]3CC[C@@H]2C=C3c2ccccc2)[nH]c1-c1ccccc1 (relative stereo) [Example 71A, rac-Isobutyric acid (1R*,2R*,4R*)-2-(2-{methyl-[3-(4-methyl-5-phenyl-1H-imidazol-2-yl)-propyl]-amino}-ethyl)-5-phenyl-bicyclo[2.2.2]oct-5-en-2-yl ester]
> 10 | COC(C)(C)C(=O)NCCCN(C)CC[C@]1(OC(=O)C(C)C)C[C@H]2CC[C@@H]1C=C2c1ccccc1 (relative stereo) [Example 44A, rac-Isobutyric acid (1R*,2R*,4R*)-2-(2-{[3-(2-methoxy-2-methyl-propionylamino)-propyl]-methyl-amino}-ethyl)-5-phenyl-bicyclo[2.2.2]oct-5-en-2-yl ester]
> 10 | COC(C)(C)C(=O)NCCCN(C)CC[C@]1(O)C[C@H]2CC[C@@H]1C=C2c1ccccc1 (relative stereo) [Example 44, rac-N-(3-{[2-((1R*,2R*,4R*)-2-Hydroxy-5-phenyl-bicyclo[2.2.2]oct-5-en-2-yl)-ethyl]-methyl-amino}-propyl)-2-methoxy-2-methyl-propionamide]
0.68 | COc1ccc(C)c2nc(CCCN(C)CC[C@]3(OC(=O)C(C)C)C[C@H]4CCC[C@@H]3C=C4c3ccccc3)[nH]c12 (relative stereo) [Example 66A, rac-Isobutyric acid (1R*,5R*,6R*)-6-(2-{[3-(7-methoxy-4-methyl-1H-benzoimidazol-2-yl)-propyl]-methyl-amino}-ethyl)-8-phenyl-bicyclo[3.2.2]non-8-en-6-yl ester]
> 10 | Cc1cc2cc(CCCN(C)CC[C@]3(OC(=O)C(C)C)C[C@H]4CC[C@@H]3C=C4c3ccccc3)cnc2o1 (relative stereo) [Example 42A, rac-Isobutyric acid (1R*,2R*,4R*)-2-(2-{methyl-[3-(2-methyl-furo[2,3-b]pyridin-5-yl)-propyl]-amino}-ethyl)-5-phenyl-bicyclo[2.2.2]oct-5-en-2-yl ester]
> 10 | CC(C)C(=O)O[C@@]1(CCN(C)CCCc2ccnc3ccccc23)C[C@H]2CC[C@@H]1C=C2c1ccccc1 (relative stereo) [Example 50A, rac-Isobutyric acid (1R*,2R*,4R*)-2-{2-[methyl-(3-quinolin-4-yl-propyl)-amino]-ethyl}-5-phenyl-bicyclo[2.2.2]oct-5-en-2-yl ester]
